According to US11472807B2, “Purine derivatives for use as medicament and for use in treating neurodegenerative or neuro-inflammatory disorders” (COMMISSARIAT À L'ENERGIE ATOMIQUE ET AUX ENERGIES …, priority 2017, dated 2022):

Tested on: p-Tau (Thr212)
Assay: p-Tau (Thr212)/total Tau in rat cortical neurons (western-blot)
Assay type: cell-based
Conditions: purine derivative 10 μM (A100), 18 h
Description: Cells were lysed in freshly prepared lysis buffer containing in mM: Tris-HCl 50, EDTA 2, EGTA 2, NaCl 100, SDS 0.2%, Triton X-100 1%, proteases inhibitors (Roche Protease Inhibitor Cocktail #04693116001), phosphatases inhibitors (in mM: ammonium molybdate 0.1, β-glycerophosphate 20, NaF 50, Na-pyrophosphate 10, Orthovanadate 1). Protein concentration was measured by the Bradford assay and Laemmli buffer was added to each lysate. Proteins (10 μg per lane) were resolved on 12% Nu-PAGE (LifeTechonoliges #NP0342BOX) using MOPS SDS running buffer and transferred on Immobilon-FL PVDF membrane (Millipore #IPFL00010). Membranes were blocked one hour in TBS Tween20 0.1% BSA 5% at room temperature. Primary antibodies were incubated O/N at 4° C. and detected by Alexa 488 conjugated secondary antibodies (Life Techonologies #A11034 and A11029) diluted 1:1.000 in TBS Tween20 0.05% and 1% BSA. The antibodies specific for pThr212-Tau (Abcam #ab4842), pThr181-Tau (AbCam #ab75679), Tau (Millipore #MAB361), APP (Millipore #07-667) and Actin (Millipore #MAB1501) were diluted in TBS Tween20 0.05% and 1% BSA. Fluorescent signal was visualized with the VersaDoc™ Imaging System (Bio-Rad Laboratories) and quantified with Quantity One® Analysis Software. Grey levels measured for bands of interest were normalized to the corresponding actin bands.
For assessing the protein Tau's phosphorylation, the culture media of rat cortical neurons were replaced by incubation medium containing purine derivatives at 10 μM (A100) or vehicle (0.1% DMSO; Control). After 18 h incubation p-Tau (Thr212) and total Tau were quantified in the cellular extracts by western-blot.

`CC[C@H](CO)Nc1nc(N(C)c2ccccc2)c2ncn(C(C)C)c2n1` [Aftin-5] was tested, and the “Attenuation of P-Tau/Tau ratio” value was “+(>1 μM) (“+” means that the tested compound shows an anti-inflammatory and/or attenuation of Tau's phosphorylation property with a concentration higher than 1 μM)”.
